Experimental data from US20160051704A1, “MOLECULAR IMAGING PROBES FOR LUNG CANCER INTRAOPERATIVE GUIDANCE” (H. Lee Moffitt Cancer Center and Research Institute, Inc., priority 2013, published 2016).

How the values were obtained:
[1] = target: T1, delta opioid receptor (δOR) (Homo sapiens, UniProt P41143); experiment: Lanthanide time-resolved fluorescence (TRF) competitive binding assay on HCT-116/δOR whole cells against Eu-DTPA-DPLCE; details: HCT-116 cells engineered to express δOR; competed ligand Eu-labeled DPLCE; read-out: Ki (δOR binding affinity)
T1 construct: pcDNA-δOR15 vector containing a truncated δOR lacking the final 15 C-terminal amino acids; expressed in transfected cells
Description: The inventors have previously generated an engineered cell line that stably overexpresses the δO R based on the colorectal cancer cell line HCT-116. […] For the LTRF competition binding assays with Dmt-Tic-IR800, the inventors used the engineered HCT-116/δOR cell line since it has a high number of receptors on the cell surface.
To determine binding affinity the inventors used a lanthanide time-resolved fluorescence (LTRF) competitive binding assay as described previously.
For the competitive binding assays, HCT-116/δOR cells were plated in black wall/white bottom 96-well plates (Perkin Elmer, Cat. #6005060) at a density of 20,000 cells per well and were allowed to grow for 3 days.
On the day of the experiment, media were aspirated from all wells and then the cells were rinsed with phosphate buffered saline (PBS) (100 μL/well). […] Ligands were diluted in binding assay buffer (Modified Eagles medium [MEM] (Gibco, Cat. #61100-087), 1 mM 1,10-phenanthroline, 200 mg/L bacitracin, 0.5 mg/L leupeptin, 26 mM NaHCO3, 25 mM HEPES, 0.2% w/v BSA) and samples were tested in octuplicate.
Cells were incubated in the presence of ligands for 1 h at 37° C. and 5% CO2. Following the incubation, cells were washed three times with wash buffer (50 mM Tris-HCl, 0.2% w/v BSA, 30 mM NaCl) (200 μL/well).

[2] = system: HCT-116/δOR (δOR+) tumor relative to HCT-116 (δOR−) tumor; type: in vivo, mice
Description: (§1) The inventors evaluated a synthetic peptide δ-opioid receptor (δOR) antagonist Dmt-Tic (FIG. 8) conjugated to two different fluorescent dyes, Cy5 and IR800CW, as further discussed below. The pharmacokinetics (PK) of Dmt-Tic-Cy5 was evaluated in a subcutaneous xenograft model using HCT-116 cells (δOR−) and HCT-116 cells that were engineered to overexpress the δOR (δOR+). Tumor uptake of Dmt-Tic-Cy5 was also studied by intravital fluorescence microscopy using a dorsal skin-fold window chamber tumor xenograft model.
For PK experiments, mice were injected with 4.5 nmol/kg Dmt-Tic-Cy5 i.v. and images acquired at various time points from 0-168 h ([…]). Graphs 9B and 9C depict the mean fluorescent signal obtained from the δOR− tumors and δOR+ tumors over a time course of 0-168 h. Graph […] depicts the mean fold of enhancement (δOR+ tumor signal/δOR− tumor signal) over time. The tumor signals were quantified, averaged (n≧3 for each time point), and plotted over time. The graphs 9B and 9C show maximum probe uptake in the δOR+ tumor at 3 h. FIG. 9D depicts the maximum signal fold of enhancement (27±9 s.d.) at 18 h in δOR+ relative to δOR− tumors.
Mice then were tail vein injected with 10 μg of ligand 1 and images were acquired at different times post-injection using a VersArray 1300B cooled CCD camera, a filtered fiberoptic light source and a tunable emission filter (CRI, Inc.). After 15 min post-injection, the fluorescence intensity maps indicated systemic presence of the compound with high intensity throughout the animal (not shown). […] Histograms were generated for each ROI, and mean fluorescence intensities were determined for each time point. […]
Initial experiments were performed using the HCT-116 parental cell line and HCT-116/δOR engineered cells in a bilateral flank subcutaneous xenograft model in mice. […] Mice were injected intravenously with the designated concentrations of Dmt-Tic-IR800 and fluorescence imaging was performed at various time points post-injection using the IVIS200 imaging system. […]

[3] = system: DMS-53 (δOR+) tumor relative to H1299 (δOR−) tumor; experiment: In vivo fluorescence imaging, bilateral subcutaneous lung cancer xenografts with endogenous δOR expression; design: species or system mice; details: for tumor selectivity in fluorescence image: 40 nmol/kg, 24 h post-administration
Description: Mice were subcutaneously injected with H1299 (δOR−) (12 million cells of 100 uL per injection) and DMS-53 (δOR+) (20 million cells at 100 uL per injection) cells in the left and right flanks, respectively. Tumors were grown for 3 weeks after subcutaneous injection.
A dose determination assay was performed to find the optimal concentration of Dmt-Tic-IR800 for further experiments. A higher concentration of the imaging agent in these experiments was needed due to the lower receptor number. Based on previous work with fluorescent imaging agents targeting different receptors in endogenous expressing cell lines, the inventors selected concentrations of 40 nmol/kg, 80 nmol/kg, and 160 nmol/kg. (Huynh A S, Chung W J, Cho H I, Moberg V E, Celis E, Morse D L, Vagner J. Novel Toll-like Receptor 2 Ligands for Targeted Pancreatic Cancer Imaging and Immunotherapy. J Med Chem. 2012; 55(22):9751-62) Fluorescence imaging was performed using the IVIS200 imaging system at various time points following intravenous administration of Dmt-Tic-IR800. For the bilateral flank subcutaneous xenograft model using endogenously expressing cells the optimal dose was 40 nmol/kg.
Fluorescence imaging of mice bearing H1299 (δOR−) cells in the left flank and DMS-53 (δOR+) cells in the right flank was performed using the Optix MX3 imaging system and a 40 nmol/kg dose of Dmt-Tic-IR800. […] FIG. 28 is a series of in vivo fluorescence images taken at different time points of mice bearing the xenograft tumors of lung cancer cell lines with positive endogenous expression (DMS-53) and non-expression (H1299). […] FIG. 30 is a series of graphs depicting the quantified values from in vivo imaging of the lung cancer xenograft tumors using the Optix MX-3 imaging instrument by ART. FIG. 31 is a series of representative images depicting the ex vivo fluorescence imaging of excised positive tumor, negative tumor, liver, lungs, kidneys and GI tract following intravenous administration of the Dmt-Tic-IR800 agent. […]
For dose determination assays on the Xenogen IVIS-200, images were analyzed using Living Image Software (v3.2). […]

[4] = system: DMS-53 luc+ (DOR+) orthotopic lung tumor; experiment: Orthotopic model of lung cancer, fluorescence molecular tomography; type: in vivo, mice; details: 40 nmol/kg i.v.; 0 to 48 hours
Description: In the orthotopic model of lung cancer, the mice undergo a minor surgical procedure during which DMS-53 luc+ (DOR+) cells are injected directly in the left lung. The growth of the tumors is monitored using bioluminescence imaging (FIG. 33A). The PK of DORL-800 was studied in this model by injecting mice intravenously with DORL-800 (40 nmol/kg) and acquiring images at various time points from 0 to 48 hours using fluorescence molecular tomography (FIG. 33B). […] FIG. 34A depicts the structure of DORL-800. FIGS. 34B and C depict in vivo fluorescence imaging of endogenously expressing subcutaneous lung cancer xenograft tumors following administration of DORL-800. The presence of tumor was confirmed by computed tomography (CT) and histology. DORL-800 was studied for use in intraoperative guidance. FIG. 35 is an image of a SCID Hairless Outbred mouse (SHO) four weeks after DMS-53 luc+ (DOR+) cells were injected directly into the lung.

[5] = In vivo pharmacokinetic (PK) and biodistribution (BD) profiles of fluorescent conjugates
[6] = literature statement; cited from earlier work
δOR = target: T2, δOR (Mus musculus, UniProt P32300); experiment: Mouse-isolated vas deferens (MVD) assay against δ-agonist DPDPE; details: n=8, read-out: Ke (inhibitory potency)
T2 construct: from tissue; host or cells: mouse isolated vas deferens
Excerpt: (Kramer, T. H.; Davis, P.; Hruby, V. J.; Burks, T. F.; Porreca, F. J. Pharmacol. Exp. Ther. 1993, 266, 577-584)

[7] = system: HCT-116/RFP (δOR negative) and HCT-116/δOR tumors; experiment: Intravital fluorescence microscopy, dorsal skin-fold window chamber tumor xenograft; type: in vivo, mice; details: 45 nmol/kg i.v.; HCT-116/RFP (δOR negative) tumor; post tail vein injection
Description: as §1
Mice containing dorsal skin-fold window chamber tumor xenografts were injected with 45 nmol/kg Dmt-Tic-Cy5 i.v. (FIG. 12) Images were acquired continuously for 15 minutes post-injection and at various time points after. […] Dmt-Tic-Cy5 is taken up and extravasates from the rat GFP vessels within seconds post tail vein injection (top). Dmt-Tic-Cy5 is cleared by 33 minutes post tail vein injection (bottom). Light gray represents the RFP signal from the tumor cells, medium gray represents the GFP signal from the rat microvessels, and dark gray is the Cy5 signal from the ligand. […] Shown are the Cy5 signal from the ligand in dark gray (left images) and overlays of the Cy5 signal and white light channels (right images) pre-injection and 25 minutes, 45 minutes, 60 minutes, 1 hour 25 minutes, and 24 hours post-injection.

δ-opioid receptor = details: literature value; cited from earlier work

T1 sequence (P41143 1-357 limits assumed): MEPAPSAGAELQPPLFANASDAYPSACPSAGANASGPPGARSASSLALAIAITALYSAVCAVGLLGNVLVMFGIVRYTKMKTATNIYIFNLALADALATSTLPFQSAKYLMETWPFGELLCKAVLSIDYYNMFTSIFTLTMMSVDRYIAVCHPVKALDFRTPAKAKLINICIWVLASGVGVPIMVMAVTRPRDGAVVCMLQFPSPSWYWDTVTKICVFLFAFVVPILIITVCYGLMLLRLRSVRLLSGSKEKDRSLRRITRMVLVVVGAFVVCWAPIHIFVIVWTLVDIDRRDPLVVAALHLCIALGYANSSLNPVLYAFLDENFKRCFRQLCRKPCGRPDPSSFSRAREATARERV
T2 sequence (P32300 whole entry): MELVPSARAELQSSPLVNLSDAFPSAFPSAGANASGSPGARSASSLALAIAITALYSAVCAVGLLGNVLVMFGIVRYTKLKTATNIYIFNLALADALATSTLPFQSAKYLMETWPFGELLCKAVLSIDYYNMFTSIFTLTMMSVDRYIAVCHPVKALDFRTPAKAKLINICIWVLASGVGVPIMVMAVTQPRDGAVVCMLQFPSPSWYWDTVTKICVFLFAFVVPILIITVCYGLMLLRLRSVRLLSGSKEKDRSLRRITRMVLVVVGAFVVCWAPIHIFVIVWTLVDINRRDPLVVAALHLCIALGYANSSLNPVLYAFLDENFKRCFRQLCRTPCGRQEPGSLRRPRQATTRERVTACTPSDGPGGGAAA

With `Cc1cc(O)cc(C)c1C[C@H](N)C(=O)N1Cc2ccccc2C[C@H]1C(=O)N[C@@H](CCCCNC(=O)CCSC1CC(=O)N(CCNC(=O)CCCCC[N+]2=C(/C=C/C3=C(Oc4ccc(S(=O)(=O)O)cc4)C(=C/C=C4/N(CCCCS(=O)(=O)O)c5ccc(S(=O)(=O)O)cc5C4(C)C)/CCC3)C(C)(C)c3cc(S(=O)(=O)[O-])ccc32)C1=O)C(=O)O` (stereo partly drawn) [Dmt-Tic-IR800] the Ki [1] was 1.43 ± 0.24 nM, the “fold enhancement of the positive tumor (HCT-116/δOR) relative to the negative tumor (HCT-116)” value ([2]; 10 nmol/kg i.v., 24 hours post-injection, Optix MX3, n=4) was about 7 fold and the “tumor selectivity in fluorescence image” value ([2]; 10 nmol/kg, 24 h post-administration) was “selective for the δOR+ tumor”. For the same compound, the “fold enhancement of the positive tumor (DMS-53) relative to the negative tumor (H1299)” value ([3]; 40 nmol/kg i.v., 24 hours post-injection, Optix MX3, n=4) was about 4 fold, the “tumor selectivity in fluorescence image” value [3] was “selective for the δOR+ tumor” and the “tumor selectivity in fluorescence image” value ([3]; listed as DORL-800) was “selective for the DOR+ tumor”. For the same compound, the “accumulation in orthotopic tumor” value [4] was “accumulated specifically in the tumor” and the blood-brain barrier passage [5] was “does not cross the blood-brain barrier”.

In the case of `CC1(C)C(/C=C/C2=C(Oc3ccc(S(=O)(=O)O)cc3)C(=C/C=C3/N(CCCCS(=O)(=O)O)c4ccc(S(=O)(=O)[O-])cc4C3(C)C)/CCC2)=[N+](CCCCCC(=O)O)c2ccc(S(=O)(=O)O)cc21` [Licor IR800CW], the toxicity [6] is given as “non-toxic”.

For `CC[N+]1=C(C=CC=CC=C2N(CCCCCC(=O)NCCN3C(=O)CC(SCCC(=O)NCCCC[C@H](NC(=O)[C@@H]4Cc5ccccc5CN4C(=O)[C@@H](N)Cc4c(C)cc(O)cc4C)C(=O)O)C3=O)c3ccc(S(=O)(=O)O)cc3C2(C)C)C(C)(C)c2cc(S(=O)(=O)[O-])ccc21` (stereo partly drawn) [ligand 1, Dmt-Tic-Lys(Cy5)-OH], the Ki [1] was 3 nM, the Kb (δOR) was 0.037 nM and the “time of maximum probe uptake in the δOR+ tumor” value ([2]; 4.5 nmol/kg i.v., time course 0-168 h) was 3 h. For the same compound, the “time by which probe is cleared from δOR negative tumor” value [7] was at most 33 min and the blood-brain barrier passage [5] was “does not cross the blood-brain barrier”.

For Dmt-Tic-Lys(Ac)-OH, the Ki (δ-opioid receptor) is listed as 0.047 nM.
